This note sets out measurements from ChEMBL document CHEMBL3232884, “Design, synthesis, and biological evaluation of novel pyridine-bridged analogues of combretastatin-A4 as anticancer agents” (J Med Chem, 2014).

Active and inactive are the calls of the source. The rule behind the calls is not given here.

The subject of series [1] is HeLa. Briefly: Cytotoxicity against human HeLa cells after 72 hrs by resazurin based fluorescence assay. It is filed as functional, cell-based. On the technique in general: The colour change of resazurin is a common sign of viable cells or microbes.
Series [2] relates to A549. The experiment in a line: Cytotoxicity against human A549 cells after 72 hrs by resazurin based fluorescence assay. It counts as functional, cell-based.
In series [3] the test system is MDA-MB-231. Briefly: Cytotoxicity against human MDA-MB-231 cells after 72 hrs by resazurin based fluorescence assay. It is filed as functional, cell-based.
Series [4] addresses T1, Tubulin (Bos taurus) (UniProt Q6B856+Q862L2+Q862F3). The experiment in a line: Inhibition of bovine brain tubulin polymerization at 10 uM after 60 mins by spectrophotometric analysis.
The test system of series [5] is Chorioallantoic membrane. The experiment in a line: Antiangiogenic activity in chicken embryo chorioallantoic membrane model assessed as inhibition of bFGF/VEGF-induced new vessel growth. Particulars: Gallus gallus. It counts as functional, tissue-based.
Series [6] can be described thus: Plasma concentration in C57BL/6 mouse at 5 mg/kg, po after 3 hrs. It counts as ADME, organism-based. Further details: dose 5 mg/kg, route oral.
Series [7] concerns HeLa. Briefly: Cell cycle arrest in human HeLa cells assessed as accumulation at G0/G1 phase at 1 uM after 24 hrs using propidium iodide staining by flow cytometry (reference value: 61.60%). It is filed as functional. (A flow cytometer gives signals particle by particle.)
A short description of series [8]: Plasma concentration in C57BL/6 mouse at 5 mg/kg, po after 1 hr. It is filed as ADME, organism-based. Also on record: dose 5 mg/kg, route oral.
The target in series [9] is T1, Tubulin (Bos taurus). The experiment in a line: Inhibition of bovine brain tubulin polymerization at 1 uM after 60 mins by spectrophotometric analysis.
In series [10] the test system is HeLa. Briefly: Antimicrotubule activity in human HeLa cells assessed as reduction of interphase microtubule network at 1 uM after 24 hrs by indirect immunofluorescence technique. It counts as functional, cell-based.
In series [11] the test system is MDA-MB-231. Briefly: Antimicrotubule activity in human MDA-MB-231 cells assessed as reduction of interphase microtubule network at 1 uM after 24 hrs by indirect immunofluorescence technique. It counts as functional, cell-based.
In series [12] the target is T1, Tubulin (Bos taurus). Briefly: Induction of bovine brain tubulin polymerization at 1 uM after 60 mins by spectrophotometric analysis.
Series [13] concerns the target Tubulin (Homo sapiens) (UniProt P68371+Q9H4B7+P0DPH7+P68366+Q13509+Q71U36+P04350+Q3ZCM7+P07437+P68363+Q9BQE3+Q6PEY2+Q13885+Q9BVA1+Q9BUF5). Briefly: Displacement of colchicine from tubulin (unknown origin) at 0.1 to 125 uM after 1 hr by HPLC-MS/MS analysis. It is filed as protein-complex assay.

`COc1cc(-c2ccnc(-c3cc(OC)c(OC)c(OC)c3)c2)cc(OC)c1OC`: the IC50 (in general, the concentration needed to halve the response being measured) turned out to be 0.79 µM in [1] (Homo sapiens, HeLa, 72 h); 7.86 µM in series [2] (Homo sapiens, A549, 72 h); 2.63 µM in [3] (Homo sapiens, MDA-MB-231, 72 h).
Consider `COc1ccc(-c2cccc(-c3ccc(OC)c(O)c3)n2)c(OC)c1` [listing 1 of 3 here], for which the IC50 in series [1] (hela) came to 0.0026 µM; in [2] (a549), 0.042 µM; in series [3] (mda-mb-231), 0.0054 µM.
As for `COc1ccc(-c2ccc(-c3cc(OC)c(OC)c(OC)c3)nc2)cc1OC`, the half-inhibitory concentration (IC50) in series [1] (Homo sapiens, HeLa, 72 h) was above 25 µM; in [2] (Homo sapiens, A549, 72 h), above 50 µM; in series [3] (Homo sapiens, MDA-MB-231, 72 h), above 50 µM.
Consider `COc1cc(-c2cccc(-c3cc(OC)c(OC)c(OC)c3)n2)cc(OC)c1OC`, for which the half-inhibitory concentration (IC50) in series [1] (Homo sapiens, HeLa, 72 h) was 1 µM; in series [2] (Homo sapiens, A549, 72 h), above 50 µM; in series [3] (Homo sapiens, MDA-MB-231, 72 h) it was 11 µM.
For the molecule `COc1cc(-c2ccc(Br)cn2)cc(OC)c1OC`, the IC50 in [1] (Homo sapiens, HeLa, 72 h) was 14 µM; in series [2] (Homo sapiens, A549, 72 h), above 25 µM; in series [3] (Homo sapiens, MDA-MB-231, 72 h), 12.1 µM.
The like results for `COc1cc(-c2ccc(-c3cc(OC)c(OC)c(OC)c3)nc2)cc(OC)c1OC` were, in that order, 2.68 µM, above 100 µM and 11 µM.
Consider `COc1ccc(-c2cccc(-c3ccc(O)cc3)n2)cc1OC`, for which the IC50 in series [1] (Homo sapiens, HeLa, 72 h) was 0.86 µM; in series [2] (Homo sapiens, A549, 72 h) it was above 100 µM; in series [3] (Homo sapiens, MDA-MB-231, 72 h), above 50 µM.
For the molecule `COc1ccc(-c2cccc(-c3cccc(OC)c3OC)n2)c(OC)c1`, the IC50 in series [1] (Homo sapiens, HeLa, 72 h) is above 50 µM; in [2] (Homo sapiens, A549, 72 h), above 50 µM; in series [3] (Homo sapiens, MDA-MB-231, 72 h), above 50 µM.
Turning to `COc1ccc(/C=C\c2cc(OC)c(OC)c(OC)c2)cc1O` [COMBRETASTATIN A4], in [4], the inhibition (commonly the percentage by which the read-out fell short of the control) is “Active”. In addition, the IC50 came out at 0.0009 µM in series [1] (Homo sapiens, HeLa, 72 h); 0.0038 µM in series [2] (Homo sapiens, A549, 72 h); 0.0028 µM in series [3] (Homo sapiens, MDA-MB-231, 72 h). Besides, in [5], the “growth inhibition (GI)” value was “Active”. The concentration at 3 h in [6] was determined as 2.1 ng/mL. The Activity in [7] is reported as 37%. The molecule further gave a concentration at 1 h in series [8] of 2.3 ng/mL. Further, the inhibition in series [9] was 35%. The outcome in series [10] and in series [11] was Active.
`COc1ccc(-c2cccc(Br)n2)cc1OC`: the IC50 in series [1] (Homo sapiens, HeLa, 72 h) was above 50 µM; in series [2] (Homo sapiens, A549, 72 h), above 25 µM; in series [3] (Homo sapiens, MDA-MB-231, 72 h), above 25 µM.
As for `COc1ccc(-c2ccc(-c3ccc(OC)cc3OC)nc2)c(OC)c1`, the half-inhibitory concentration (IC50) is above 50 µM in series [1] (Homo sapiens, HeLa, 72 h); above 100 µM in series [2] (Homo sapiens, A549, 72 h); above 100 µM in series [3] (Homo sapiens, MDA-MB-231, 72 h).
For the molecule `COc1ccc(-c2cccc(-c3ccc(OC)cc3OC)n2)cc1`, the inhibition result in series [4] and in [9] was “inactive” each time. Besides, the IC50 in [1] (Homo sapiens, HeLa, 72 h) stood at 0.0038 µM; in series [2] (Homo sapiens, A549, 72 h), 0.089 µM; in series [3] (Homo sapiens, MDA-MB-231, 72 h) it was 0.0031 µM. Further, the “growth inhibition (GI)” value in series [5] was “Active”. Moreover, the outcome in series [10], in series [11] and in [12] was Active.
With `COc1ccc(-c2cccc(Br)n2)cc1`, the IC50 in series [1] (Homo sapiens, HeLa, 72 h) is 2 µM; in series [2] (Homo sapiens, A549, 72 h) it was 2 µM; in series [3] (Homo sapiens, MDA-MB-231, 72 h), 10 µM.
As for `COc1cc(-c2cccc(Br)n2)cc(OC)c1OC`, the IC50 amounted to 12 µM in series [1] (Homo sapiens, HeLa, 72 h); 9 µM in [2] (Homo sapiens, A549, 72 h); 6 µM in [3] (Homo sapiens, MDA-MB-231, 72 h).
On to `COc1ccc(-c2cccc(Br)n2)c(OC)c1`, for which the IC50 in [1] (Homo sapiens, HeLa, 72 h) was above 50 µM; in series [2] (Homo sapiens, A549, 72 h) it was above 50 µM; in [3] (Homo sapiens, MDA-MB-231, 72 h) it was above 100 µM.
In turn, `COc1ccc(-c2cccc(-c3ccc(OC)c(O)c3)n2)c(OC)c1` [listing 2 of 3 here] gave an inhibition in [4] of 57%. Also, in series [13], the inhibition result was “Active”. In addition, in [5], the “growth inhibition (GI)” value is “Active”. The inhibition entry in series [9] was “inactive”.
In the case of `COc1ccc(-c2cccc(-c3ccc(OC)c(OC)c3)n2)cc1`, the half-maximal inhibitory concentration (IC50) in [1] (Homo sapiens, HeLa, 72 h) was above 25 µM; in series [2] (Homo sapiens, A549, 72 h), above 25 µM; in series [3] (Homo sapiens, MDA-MB-231, 72 h), above 25 µM.
With `COc1ccc(-c2cccc(-c3ccc(OC)c(O)c3)n2)c(OC)c1` [listing 3 of 3 here], the half-inhibitory concentration (IC50) was 0.0014 µM in series [1] (Homo sapiens, HeLa, 72 h); 0.044 µM in series [2] (Homo sapiens, A549, 72 h); 0.0046 µM in series [3] (Homo sapiens, MDA-MB-231, 72 h). The concentration at 1 h in series [8] stood at 9.2 ng/mL.
As to `COc1ccc(-c2ccnc(-c3ccc(OC)cc3OC)c2)c(OC)c1`, the IC50 in series [1] (Homo sapiens, HeLa, 72 h) was above 25 µM; in [2] (Homo sapiens, A549, 72 h), above 50 µM; in [3] (Homo sapiens, MDA-MB-231, 72 h) it was above 50 µM.
For the molecule `COc1ccc(-c2cccc(-c3ccc(OC)cc3)n2)cc1`, the IC50 in [1] (Homo sapiens, HeLa, 72 h) is 2 µM; in [2] (Homo sapiens, A549, 72 h), above 100 µM; in series [3] (Homo sapiens, MDA-MB-231, 72 h), 9 µM.
The like results for `COc1cccc(-c2cccc(-c3ccc(OC)cc3OC)n2)c1` were, in that order, 0.067 µM, 0.56 µM and 9.02 µM.
The like results for `COc1ccc(-c2cccc(-c3cc(OC)c(OC)c(OC)c3)n2)cc1OC` were, in that order, 0.026 µM, above 50 µM and 2.49 µM.
On the same counts, the results for `COc1ccc(-c2cccc(-c3c(OC)cc(OC)cc3OC)n2)c(OC)c1` are above 25 µM, above 50 µM and above 50 µM.
Regarding `COc1cc(-c2cccc(-c3ccc(O)cc3)n2)cc(OC)c1OC`, the IC50 in series [1] (Homo sapiens, HeLa, 72 h) was 8 µM; in series [2] (Homo sapiens, A549, 72 h), above 25 µM; in series [3] (Homo sapiens, MDA-MB-231, 72 h), 10 µM.
`COc1ccc(-c2cccc(-c3ccc(O)cc3)n2)cc1`: the IC50 in series [1] (Homo sapiens, HeLa, 72 h) is above 50 µM; in series [2] (Homo sapiens, A549, 72 h), above 25 µM; in [3] (Homo sapiens, MDA-MB-231, 72 h), above 25 µM.
In the case of `COc1cc(OC)cc(-c2cccc(-c3ccc(OC)cc3OC)n2)c1`, the IC50 was above 50 µM in series [1] (Homo sapiens, HeLa, 72 h); above 25 µM in series [2] (Homo sapiens, A549, 72 h); above 25 µM in series [3] (Homo sapiens, MDA-MB-231, 72 h).
With `COc1ccc(-c2cccc(-c3ccc(O)cc3)n2)c(OC)c1`, the IC50 in [1] (Homo sapiens, HeLa, 72 h) is above 100 µM; in series [2] (Homo sapiens, A549, 72 h) it was 4.22 µM; in [3] (Homo sapiens, MDA-MB-231, 72 h), 17.2 µM.
As for `COc1ccc(-c2cccc(-c3cc(OC)c(OC)c(OC)c3)n2)cc1`, the IC50 in [1] (Homo sapiens, HeLa, 72 h) is above 50 µM; in series [2] (Homo sapiens, A549, 72 h), above 50 µM; in [3] (Homo sapiens, MDA-MB-231, 72 h), above 25 µM.
For the molecule `COc1ccc(-c2cccc(-c3ccccc3OC)n2)c(OC)c1`, the IC50 in series [1] (Homo sapiens, HeLa, 72 h) was above 25 µM; in [2] (Homo sapiens, A549, 72 h), above 50 µM; in [3] (Homo sapiens, MDA-MB-231, 72 h), above 25 µM.
Consider `COc1ccc(-c2cccc(-c3ccc(OC)cc3OC)n2)c(OC)c1`, for which the IC50 in [1] (Homo sapiens, HeLa, 72 h) was 0.011 µM; in [2] (Homo sapiens, A549, 72 h), 0.079 µM; in [3] (Homo sapiens, MDA-MB-231, 72 h), 0.075 µM.
On the same counts, the results for `COc1ccc(-c2cccc(-c3c(OC)cccc3OC)n2)c(OC)c1` are above 50 µM, above 100 µM and above 100 µM.
For `COc1ccc(-c2cccc(-c3ccc(OC)c(OC)c3)n2)cc1OC`, the half-maximal inhibitory concentration (IC50) in [1] (Homo sapiens, HeLa, 72 h) is above 25 µM; in series [2] (Homo sapiens, A549, 72 h), above 50 µM; in series [3] (Homo sapiens, MDA-MB-231, 72 h), above 50 µM.
As to `COc1ccc(-c2cccc(-c3ccc(OC)c(OC)c3)n2)c(OC)c1`, the IC50 was above 50 µM in series [1] (Homo sapiens, HeLa, 72 h); above 25 µM in [2] (Homo sapiens, A549, 72 h); 13 µM in [3] (Homo sapiens, MDA-MB-231, 72 h).
